# Where two headings read alike, the source gives them in different places.
# What was measured:
# DA autoreceptors [1] = test: Antagonism of γ-butyrolactone (GBL)-induced increase in rat brain DA synthesis rate; format: in vivo
# Procedure: 3. Antagonism ofγ-butyrolactone (GBL)-induced increase in rat brain DA synthesis rate.
# The administration of GBL in anesthetic doses inhibits nerve impulse flow in central DA neurons, thus resulting in a loss of the impulse-mediated feedback control of tyrosine hydroxylase activity and in a subsequent increase in transmitter synthesis rate (which is determined as described under 2 above). Since the GBL inhibition precludes neuronal feedback actions, antagonistic effects exerted by DA-receptor agonists upon the GBL-induced increase in synthesis are in all probability to be ascribed to their stimulating the DA autoreceptors present in the terminal area of the DA neurons.
# Rats (150-300 g), were given compound 4 subcutaneously at several doses (n=7) followed by GBL (750 mg/kg i.p., 5 min. later) and NSD 1015 (100 mg/kg i.p., 10 min. later). By a subsequent procedure according to 2 above the Dopa levels (representing the DA-synthesis rates) were determined. […] The maximal reversal of the GBL-induced increase in DA synthesis rate was approximately 160% in the limbic system and 110% in corpus striatum.
# [2] = tested on: postsynaptic dopamine receptor; test: Gross behavioral observations for postsynaptic dopamine receptor activity; format: in vivo, rat; details: gross behavioural observations, any dose tested
# Source text: (§1) Rats (150-300 g) pretreated with reserpine were given the compounds under evaluation. Gross behavioral observations (changes in motility, stereotypies etc.) were made in order to evaluate possible postsynaptic dopamine receptor activity. Subsequent administration of NSD 1015, decapitation, brain dissection (corpora striate and the limbic fore-brain), homogenization, centrifugation, ion-exchange chromatography and spectrofluorimetric measurements (all as described in detail by Wikstrom et al., in J. Med. Chem. 21, 864-867, 1978, and references cited therein), gave the actual Dopa levels. Several doses (n=4-6) were tested in order to obtain dose-response curves for each compound and brain area. The dose of a compound producing a half-maximal decrease in the Dopa level in the rat brain part was then estimated.
# DA autoreceptors [3] = test: Effect on spontaneous locomotor activity in the rat; format: in vivo; details: for Motor activity: 0-15 min
# Source text: 4. Effect on spontaneous locomotor activity in the rat.
# Untreated animals exposed to a new environment display an initial high motor activity which then gradually declines over a period of time. Administration of DA-receptor agonists (e.g. apomorphine) in doses where preferential autoreceptor stimulation is likely to occur, causes a depression of the spontaneous motility mentioned above, considered to be due to the DA autoreceptor-mediated impairment of central DA transmission.
# Rats (150-300 g) were injected subcutaneously with several doses of compounds 4 and after 5 minutes they were individually placed in motility boxes ("M/P 40 Fc Electronic Motility Meter". Motron Products, Stockholm) and the motor activity (0-30 min.) was quantified. […] Moreover, there seems to be a correlation between the decrease in spontaneous locomotion and the degree of antagonism of the GBL-induced increase in DA synthesis (cf. 3 above) in the limbic areas of rat brain exerted by compound 4, the per cent decrease of motor activity being roughly 0.6 times the per cent reversal of GBL-induced increase in DA-synthesis rate.
# [4] = tested on: rat brain tyrosine hydroxylation; test: In-vivo determination of rat brain tyrosine hydroxylation (Dopa formation after NSD 1015, reserpine-pretreated rats); details: sc, reserpine-pretreated rats, Dopa level
# Procedure: 2. In-vivo determination of rat brain tyrosine hydroxylation.
# The compounds under evaluation were tested biochemically for central DA-receptor (pre- and/or postsynaptic) stimulating activity. The concept of this biochemical screening method is that a DA-receptor agonist will stimulate the receptor and through regulatory feedback systems effect a decline in tyrosine hydroxylase activity and thus a subsequent reduction in the synthesis rate for DA in the presynaptic neuron. Dopa formation, as determined after in-vivo inhibition of the aromatic L-amino acid decarboxylase with NSD 1015 (3-hydroxybenzyl-hydrazine hydrochloride), is taken as an indirect measure of DA synthesis rate.
# as §1
# Rat rectal temperature = format: in vivo; details: 8 mg/kg s.c., 0-30 min
# Source text: It was in fact lacking any measurable temperature effects.
# [5] = tested on: central postsynaptic DA-receptor; test: Locomotor activity in reserpine-pretreated rats, comparison of compound 4 with two known dopaminergic agonists; format: in vivo, rat
# Procedure: Rats (150-300 g) pretreated with reserpine (10 mg/ kg i.p., 6 h before) were given either phys. saline, compound 4 (100 μmol/kg), N-n-propyl-3-(3,4-dihydroxyphenyl)piperidine (100 μmol/kg) or apomorphine ([…]) subcutaneously and the locomotor activity (accumulated counts 0-60 min.) was quantified by means of Motron boxes (see under 4 above).
smiles,measurement,setting,value
"Br.CCCN1CCCC(c2cccc(O)c2)C1 (racemic) [Compound 4, N-n-propyl-3-(3-hydroxyphenyl)piperidine hydrobromide]",% Reversal of GBL-induced increase in dopamine synthesis rate,"DA autoreceptors [1]; 0.5 mg/kg s.c., corpus striatum",0%
same,% Reversal of GBL-induced increase in dopamine synthesis rate,"DA autoreceptors [1]; 0.5 mg/kg s.c., limbic system",58%
same,% Reversal of GBL-induced increase in dopamine synthesis rate,"DA autoreceptors [1]; 1.0 mg/kg s.c., corpus striatum",17%
same,% Reversal of GBL-induced increase in dopamine synthesis rate,"DA autoreceptors [1]; 1.0 mg/kg s.c., limbic system",75%
same,% Reversal of GBL-induced increase in dopamine synthesis rate,"DA autoreceptors [1]; 2.0 mg/kg s.c., corpus striatum",34%
same,% Reversal of GBL-induced increase in dopamine synthesis rate,"DA autoreceptors [1]; 2.0 mg/kg s.c., limbic system",92%
same,% Reversal of GBL-induced increase in dopamine synthesis rate,"DA autoreceptors [1]; 4.0 mg/kg s.c., corpus striatum",51%
same,% Reversal of GBL-induced increase in dopamine synthesis rate,"DA autoreceptors [1]; 4.0 mg/kg s.c., limbic system",109%
same,% Reversal of GBL-induced increase in dopamine synthesis rate,"DA autoreceptors [1]; 8.0 mg/kg s.c., corpus striatum",68%
same,% Reversal of GBL-induced increase in dopamine synthesis rate,"DA autoreceptors [1]; 8.0 mg/kg s.c., limbic system",126%
same,% Reversal of GBL-induced increase in dopamine synthesis rate,"DA autoreceptors [1]; 16.0 mg/kg s.c., corpus striatum",86%
same,% Reversal of GBL-induced increase in dopamine synthesis rate,"DA autoreceptors [1]; 16.0 mg/kg s.c., limbic system",142%
same,Dopa concentration,"DA autoreceptors [1]; 32 mg/kg s.c. + GBL, limbic system, n=5",191 ± 16 ng per g tissue
same,Dopa concentration,"DA autoreceptors [1]; 32 mg/kg s.c. + GBL, striatum, n=5",1063 ± 74 ng per g tissue
same,maximal reversal of the GBL-induced increase in DA synthesis rate,DA autoreceptors [1]; corpus striatum,~110%
same,blockade by haloperidol of the antagonism of GBL-induced increase,DA autoreceptors [1]; haloperidol,the antagonism could be blocked by haloperidol
same,Dopa concentration,"DA autoreceptors [1]; haloperidol 1 mg/kg i.p. + 32 mg/kg compound 4, limbic system, n=3",387 ± 32 ng per g tissue
same,Dopa concentration,"DA autoreceptors [1]; haloperidol 1 mg/kg i.p. + 32 mg/kg compound 4, striatum, n=3",2193 ± 53 ng per g tissue
same,maximal reversal of the GBL-induced increase in DA synthesis rate,DA autoreceptors [1]; limbic system,approximately 160%
same,dose dependence of antagonism of GBL-induced increase in DA synthesis rate,"DA autoreceptors [1]; s.c., several doses",dose-dependently antagonized the GBL-induced increase in DA synthesis rate
same,postsynaptic DA-receptor activation,[2],selectivity for the autoreceptors
same,Motor activity,"DA autoreceptors [3]; glucose i.p. + compound 4 0.5 mg/kg s.c., n=5",43 ± 9 acc. counts
same,Motor activity,"DA autoreceptors [3]; haloperidol 0.02 mg/kg i.p. + compound 4 0.5 mg/kg s.c., n=7",80 ± 10 acc. counts
same,reversal of sedative effect by haloperidol,"DA autoreceptors [3]; haloperidol 0.02 mg/kg i.p. 30 min before, compound 4 0.5 mg/kg",at least partly reversed the sedative effect
same,per cent decrease of motor activity relative to per cent reversal of GBL-induced increase in DA-synthesis rate,"DA autoreceptors [3]; limbic areas, correlation",roughly 0.6 times
same,locomotor stimulation,DA autoreceptors [3]; regardless of the dose used,No locomotor stimulation was ever seen
same,maximal decrease of motor activity from control values,"DA autoreceptors [3]; s.c., 0-30 min, at about 8 mg/kg",75%
same,dose at which maximal effect is attained,"DA autoreceptors [3]; s.c., 75% decrease from control values",about 8 mg/kg
same,dose dependence of motor activity effect,"DA autoreceptors [3]; s.c., several doses",clear dose-dependent decrease of the initial high motor activity
same,ED50,"[4]; limbic, read-out: ED50 Limbic",2.7 µmol/kg
same,ED50,"[4]; striatum, read-out: ED50 Striatum",2.7 µmol/kg
same,effect on rectal temperature,Rat rectal temperature,failed to lower the rat rectal temperature
same,Motor activity,"[5]; 0-60 min postinj., 100 μmol/kg s.c.",55 ± 4 acc. counts
same,central postsynaptic DA-receptor stimulation / motor response,[5]; s.c.,failed to elicit a motor response that differed more than slightly from control values

# Reference: patent US4937346A, “Phenyl-azacykloalkanes” (Carlsson; Per Arvid Emil, priority 1979, dated 1990)
